For 24 compounds, TGI results are on record in PubChem BioAssay (NCI).

Molecules are shown by their SMILES.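 Exposure lasted 48 hours, with cells grown in 96-well plates and compounds tested at five concentrations. The concentration for full growth arrest is given as TGI.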 Where only a bound is given, the exact number is not on record here.

One test relates to CAKI-1 renal. Briefly: NCI-60 cell line screen, 48 h.
`COC1C(O)C(O[C@H]2CC[C@@]3(C)C(CC[C@@H]4[C@@H]3CC[C@]3(C)[C@@H](C(C)OC5OC(CO)C(O)C(O)C5O)CC[C@]43O)C2)OC(C)C1OC1OC(CO)C(O)C(O)C1O` (stereo not given in full) showed a TGI above 100 µM.
On the same count and under the same terms, the result for `Clc1nncc2sc(-c3ccccc3)nc12` reads 2.91 µM; that for `Cc1cc(NS(=O)(=O)c2ccc(NC(NC(=O)C(C(F)(F)F)C(F)(F)F)(C(F)(F)F)C(F)(F)F)cc2)no1`, above 100 µM.
Still for that read-out and setting: as for `C/C(=N\Nc1nc2ccccc2s1)c1ccc2ccccc2n1`, the figure is above 100 µM.
Regarding `O=S1SC(=S)C2C=CC=CC21` (stereo not given), the TGI was above 100 µM.
`COc1ccc(Oc2cnn(C(Br)(Br)C(C)=O)c(=O)c2Br)cc1` yielded a TGI of 24.6 µM.
For the compound `C[C@]12CC[C@@H]3c4ccc(O)cc4CC[C@H]3[C@@H]1C/C(=C\c1ccc(C#N)cc1)C2=O`, the TGI was above 100 µM.
As to `CC1(C)CC(C#Cc2ccccc2)CC(C)(C)N1O`, the TGI is 61.3 µM.
On the same count and under the same terms, the result for `Cc1cc(O)c(-c2cc(O)c(C)cc2O)cc1O` reads 14.6 µM.
For `O=C(O)CN(CC(=O)O)C(C(=O)O)c1ccccc1` (stereo not given), the TGI was above 100 µM.
`Cc1ccc(NC(=O)/C(Cc2nc3ccc([N+](=O)[O-])cc3[nH]c2=O)=N\NC(=O)C[n+]2ccccc2)c(C)c1` registered a TGI above 100 µM.
On the same count and under the same terms, the result for `CCNc1ncnc2sc(SCc3ccccc3)nc12` reads above 100 µM.
Same read-out and setting: as for `O=C(OCC1OC(n2nc(Cn3nnc(-c4cccnc4)n3)n(-c3cccc4ccccc34)c2=S)C(OC(=O)c2ccccc2)C1OC(=O)c1ccccc1)c1ccccc1` (stereo not given), the figure is above 100 µM.
Turning to `C[n+]1c(/C=C/c2ccc(O)c3ncccc23)[se]c2ccccc21`, the TGI was 26 µM.
With `COc1ccc(NC(C)c2ccncc2)cc1` (stereo not given), the TGI is above 100 µM.
Same read-out and setting: as for `O=C1C=CC(=O)C(CNc2ccc(C(=O)OCc3ccccc3)cc2)=C1`, the figure is 2.94 µM; as for `CC1=NNC(=O)C1C1CC(c2c[nH]c3ccccc23)=NN=C1Cl` (stereo not given), above 100 µM.
Still for that read-out and setting: the result for `CC(C)C1=C(O)C2=C(C(=O)C1=O)C1(C)CCCC(C)(C)C1C(O)C2OC=O` (stereo not given) reads 11.7 µM.
`CC(C)[Si](OC/C(=C/COC(C)(C)C)[C@H]1CC=C(C(=O)c2ccccc2N2CN(C)C(=O)N(C)C2)C1)(C(C)C)C(C)C` yielded a TGI of 23.5 µM.
In turn, `COc1ccc2c(c1)c(=O)c1c(NCCNCCO)ccc3c(=O)n(CCN(C)C)c(=O)n2c31` displayed a TGI of 2.79 µM.
Turning to `CC(C)N1CN(c2ccccc2)C2(CCN(CCCC(=O)c3ccc(F)cc3)CC2)C1=O`, the TGI was found to be 34.7 µM.
As for `CC(C)=CCC[C@@H](C)C1=C(O)C(N)=C(C)C(=O)C1=O`, the TGI was above 83.6 µM.
Still for that read-out and setting: the result for `CCOC(=O)C1=CC(C)(C(=O)OCC)Nc2c(nc(N)[nH]c2=O)N1` (stereo not given) reads above 10 µM; that for `c1ccc(C2CC(=NC3CCCCC3)Nc3ccccc3N2)cc1` (stereo not given), above 100 µM.

A further test deals with M14 melanoma. As to the kind of experiment: NCI-60 cell line screen, 48 h.
`COC1C(O)C(O[C@H]2CC[C@@]3(C)C(CC[C@@H]4[C@@H]3CC[C@]3(C)[C@@H](C(C)OC5OC(CO)C(O)C(O)C5O)CC[C@]43O)C2)OC(C)C1OC1OC(CO)C(O)C(O)C1O` (stereo not given in full) displayed a TGI above 100 µM.
On the same count and under the same terms, the result for `Clc1nncc2sc(-c3ccccc3)nc12` reads 52.3 µM.
As to `Cc1cc(NS(=O)(=O)c2ccc(NC(NC(=O)C(C(F)(F)F)C(F)(F)F)(C(F)(F)F)C(F)(F)F)cc2)no1`, the TGI is above 100 µM.
In turn, `C/C(=N\Nc1nc2ccccc2s1)c1ccc2ccccc2n1` came in with a TGI above 100 µM.
Still for that read-out and setting: as for `O=S1SC(=S)C2C=CC=CC21` (stereo not given), the figure is above 100 µM.
On the same count and under the same terms, the result for `COc1ccc(Oc2cnn(C(Br)(Br)C(C)=O)c(=O)c2Br)cc1` reads 30.6 µM.
Same read-out and setting: the result for `C[C@]12CC[C@@H]3c4ccc(O)cc4CC[C@H]3[C@@H]1C/C(=C\c1ccc(C#N)cc1)C2=O` reads above 100 µM; that for `CC1(C)CC(C#Cc2ccccc2)CC(C)(C)N1O`, 38.2 µM.
`Cc1cc(O)c(-c2cc(O)c(C)cc2O)cc1O` registered a TGI of 22.9 µM.
For the compound `O=C(O)CN(CC(=O)O)C(C(=O)O)c1ccccc1` (stereo not given), the TGI was above 100 µM.
In turn, `Cc1ccc(NC(=O)/C(Cc2nc3ccc([N+](=O)[O-])cc3[nH]c2=O)=N\NC(=O)C[n+]2ccccc2)c(C)c1` had a TGI above 100 µM.
Still for that read-out and setting: as for `CCNc1ncnc2sc(SCc3ccccc3)nc12`, the figure is above 100 µM.
With `O=C(OCC1OC(n2nc(Cn3nnc(-c4cccnc4)n3)n(-c3cccc4ccccc34)c2=S)C(OC(=O)c2ccccc2)C1OC(=O)c1ccccc1)c1ccccc1` (stereo not given), the TGI was above 100 µM.
As for `C[n+]1c(/C=C/c2ccc(O)c3ncccc23)[se]c2ccccc21`, the TGI was found to be 17.8 µM.
`COc1ccc(NC(C)c2ccncc2)cc1` (stereo not given) registered a TGI above 100 µM.
The same measure, in the same setting: as for `O=C1C=CC(=O)C(CNc2ccc(C(=O)OCc3ccccc3)cc2)=C1`, the figure is 20.8 µM; as for `CC1=NNC(=O)C1C1CC(c2c[nH]c3ccccc23)=NN=C1Cl` (stereo not given), above 100 µM.
Same read-out and setting: as for `CC(C)C1=C(O)C2=C(C(=O)C1=O)C1(C)CCCC(C)(C)C1C(O)C2OC=O` (stereo not given), the figure is 29.1 µM; as for `CC(C)[Si](OC/C(=C/COC(C)(C)C)[C@H]1CC=C(C(=O)c2ccccc2N2CN(C)C(=O)N(C)C2)C1)(C(C)C)C(C)C`, 27 µM; as for `COc1ccc2c(c1)c(=O)c1c(NCCNCCO)ccc3c(=O)n(CCN(C)C)c(=O)n2c31`, 1.86 µM.
Same read-out and setting: as for `CC(C)N1CN(c2ccccc2)C2(CCN(CCCC(=O)c3ccc(F)cc3)CC2)C1=O`, the figure is 31.1 µM; as for `CC(C)=CCC[C@@H](C)C1=C(O)C(N)=C(C)C(=O)C1=O`, above 73.2 µM.
The compound `CCOC(=O)C1=CC(C)(C(=O)OCC)Nc2c(nc(N)[nH]c2=O)N1` (stereo not given) yielded a TGI above 10 µM.
Same read-out and setting: as for `c1ccc(C2CC(=NC3CCCCC3)Nc3ccccc3N2)cc1` (stereo not given), the figure is above 100 µM.

For another test, the system named is MDA-MB-231 breast. Briefly: NCI-60 cell line screen, 48 h.
The compound `COC1C(O)C(O[C@H]2CC[C@@]3(C)C(CC[C@@H]4[C@@H]3CC[C@]3(C)[C@@H](C(C)OC5OC(CO)C(O)C(O)C5O)CC[C@]43O)C2)OC(C)C1OC1OC(CO)C(O)C(O)C1O` (stereo not given in full) registered a TGI above 100 µM.
Same read-out and setting: the result for `Clc1nncc2sc(-c3ccccc3)nc12` reads 56.1 µM.
Still for that read-out and setting: as for `Cc1cc(NS(=O)(=O)c2ccc(NC(NC(=O)C(C(F)(F)F)C(F)(F)F)(C(F)(F)F)C(F)(F)F)cc2)no1`, the figure is above 100 µM; as for `C/C(=N\Nc1nc2ccccc2s1)c1ccc2ccccc2n1`, above 100 µM; as for `O=S1SC(=S)C2C=CC=CC21` (stereo not given), above 100 µM.
For the compound `COc1ccc(Oc2cnn(C(Br)(Br)C(C)=O)c(=O)c2Br)cc1`, the TGI stood at 32.5 µM.
Still for that read-out and setting: as for `C[C@]12CC[C@@H]3c4ccc(O)cc4CC[C@H]3[C@@H]1C/C(=C\c1ccc(C#N)cc1)C2=O`, the figure is above 100 µM; as for `CC1(C)CC(C#Cc2ccccc2)CC(C)(C)N1O`, 29.8 µM.
Same read-out and setting: as for `Cc1cc(O)c(-c2cc(O)c(C)cc2O)cc1O`, the figure is 33.3 µM.
Same read-out and setting: the result for `O=C(O)CN(CC(=O)O)C(C(=O)O)c1ccccc1` (stereo not given) reads above 100 µM; that for `Cc1ccc(NC(=O)/C(Cc2nc3ccc([N+](=O)[O-])cc3[nH]c2=O)=N\NC(=O)C[n+]2ccccc2)c(C)c1`, 86.4 µM; that for `CCNc1ncnc2sc(SCc3ccccc3)nc12`, above 100 µM.
